# How the values were obtained:
# [1] = system: herpes simplex virus type 1 (HSV-1) strain F; experiment: Virus inactivating reaction with HSV-1 in sample solution, remaining infectious virus by plaque assay; assay type: cell-based
# [2] = system: influenza virus A/Aichi (H3N2); experiment: Virus inactivating reaction with influenza virus A in sample solution, remaining infectious virus by plaque assay; assay type: cell-based; conditions: for Relative Inactivating Efficiency: relative to 0.01% CAE alone
# [3] = 0.1 mM catechin compound alone, pH 4.0, 30° C. 5 min
# [4] = 0.1 mM catechin compound, 0 M arginine, pH 4.0, relative to 0.1 mM of the same compound alone
# [5] = 0.1 mM catechin compound, 0.2 M arginine, pH 4.0, relative to 0.1 mM of the same compound alone
# [6] = 0.5 mM catechin compound, 0 M arginine, pH 4.0, relative to 0.1 mM of the same compound alone
molecule,measurement,setting,value
O=C(O[C@@H]1Cc2c(O)cc(O)cc2O[C@@H]1c1ccc(O)c(O)c1)c1cc(O)c(O)c(O)c1 [(−)epicatechin gallate],"remaining viral titer, % of the viral amount before inactivation",[1]; [3],0.04%
same,Relative Inactivating Efficiency,[1]; [4],1 times
same,Relative Inactivating Efficiency,[1]; [5],59 times
same,Relative Inactivating Efficiency,[1]; [6],27 times
"N=C(N)NCCC[C@H](N)C(=O)O [Arginine, arginine]",Relative Inactivating Efficiency,"[1]; 0% CAE, 0.058 M arginine alone, pH 4.0, 10 mM sodium citrate, relative to 0.005% CAE alone",0.03 times
same,Relative Inactivating Efficiency,[1]; pH 4,1075 times
"O=C(/C=C/c1ccc(O)c(O)c1)OCCc1ccccc1 [Caffeic acid phenethyl ester, caffeic acid phenethyl ester]","remaining viral titer, % of that obtained before inactivation","[1]; 0.01 mM caffeic acid phenethyl ester alone, pH 4.0, 30° C. 5 min",0.3%
same,Relative Inactivating Efficiency,"[1]; 0.01 mM caffeic acid phenethyl ester, 0 M arginine, pH 4.0, relative to 0.01 mM compound alone",1 times
same,Relative Inactivating Efficiency,"[1]; 0.01 mM caffeic acid phenethyl ester, 0.2 M arginine, pH 4.0, relative to 0.01 mM compound alone",8 times
same,Relative Inactivating Efficiency,"[1]; 0.05 mM caffeic acid phenethyl ester, 0 M arginine, pH 4.0, relative to 0.01 mM compound alone",1 times
same,Relative Inactivating Efficiency,"[1]; 0.05 mM caffeic acid phenethyl ester, 0.2 M arginine, pH 4.0, relative to 0.01 mM compound alone",122 times
same,Relative Inactivating Efficiency,"[1]; 0.1 mM caffeic acid phenethyl ester, 0 M arginine, pH 4.0, relative to 0.01 mM compound alone",1 times
same,Relative Inactivating Efficiency,"[1]; 0.1 mM caffeic acid phenethyl ester, 0.2 M arginine, pH 4.0, relative to 0.01 mM compound alone",>243 times
same,Relative Inactivating Efficiency,"[1]; 0.1 mM caffeic acid phenethyl ester, 0.2 M arginine, pH 4.0, relative to 0.01 mM compound alone, listed as caffeic acid phenethyl ester",more than 243 times
"O=C(O)/C=C/c1ccc(O)c(O)c1 [Caffeic acid, caffeic acid]","viral titer after inactivation, % of that before inactivation","[1]; 0.1 mM caffeic acid alone, pH 4.0 (Comparative Example 2)",0.13%
same,"viral titer after inactivation, % of the viral amount before inactivation","[1]; 0.1 mM caffeic acid alone, pH 4.0, 30° C. 5 min (Example 1)",0.3%
same,Relative Inactivating Efficiency,"[1]; 0.1 mM caffeic acid, 0 M NaCl, pH 4.0, 20 mM sodium acetate, relative to 0.1 mM caffeic acid alone",1 times
same,Relative Inactivating Efficiency,"[1]; 0.1 mM caffeic acid, 0 M arginine, pH 4.0, 30° C. 5 min, relative to 0.1 mM caffeic acid alone",1 times
same,Relative Inactivating Efficiency,"[1]; 0.1 mM caffeic acid, 0.2 M NaCl, pH 4.0, relative to 0.1 mM caffeic acid alone",0.010 times
same,Relative Inactivating Efficiency,"[1]; 0.1 mM caffeic acid, 0.2 M NaCl, pH 4.0, relative to 0.1 mM caffeic acid alone, listed as caffeic acid",0.01 times
same,Relative Inactivating Efficiency,"[1]; 0.1 mM caffeic acid, 0.2 M arginine, pH 4.0, 30° C. 5 min, relative to 0.1 mM caffeic acid alone",1.5 times
same,Relative Inactivating Efficiency,"[1]; 0.5 mM caffeic acid, 0 M arginine, pH 4.0, 30° C. 5 min, relative to 0.1 mM caffeic acid alone",1.3 times
same,Relative Inactivating Efficiency,"[1]; 0.5 mM caffeic acid, 0.2 M NaCl, pH 4.0, relative to 0.1 mM caffeic acid alone",0.009 times
same,Relative Inactivating Efficiency,"[1]; 0.5 mM caffeic acid, 0.2 M arginine, pH 4.0, 30° C. 5 min, relative to 0.1 mM caffeic acid alone",3.3 times
same,Relative Inactivating Efficiency,"[1]; 1 mM caffeic acid, 0 M arginine, pH 4.0, 30° C. 5 min, relative to 0.1 mM caffeic acid alone",1.4 times
same,Relative Inactivating Efficiency,"[1]; 1.0 mM caffeic acid, 0.2 M NaCl, pH 4.0, relative to 0.1 mM caffeic acid alone",0.007 times
same,Relative Inactivating Efficiency,"[1]; 1 mM caffeic acid, 0.2 M arginine, pH 4.0, 30° C. 5 min, relative to 0.1 mM caffeic acid alone",7.8 times
"O=C1O[C@H]([C@@H](O)CO)C(=O)C1=O [Dehydroascorbic acid, dehydroascorbic acid]","remaining viral titer, % of the viral amount before inactivation","[1]; 0.1 mM dehydroascorbic acid alone, pH 4.0, 30° C. 5 min",7.3%
same,Relative Inactivating Efficiency,"[1]; 0.1 mM dehydroascorbic acid, 0 M arginine, pH 4.0, relative to 0.1 mM compound alone",1 times
same,Relative Inactivating Efficiency,"[1]; 0.1 mM dehydroascorbic acid, 0.2 M arginine, pH 4.0, relative to 0.1 mM compound alone",248 times
same,Relative Inactivating Efficiency,"[1]; 1 mM dehydroascorbic acid, 0 M arginine, pH 4.0, relative to 0.1 mM compound alone",1 times
same,Relative Inactivating Efficiency,"[1]; 1 mM dehydroascorbic acid, 0.2 M arginine, pH 4.0, relative to 0.1 mM compound alone",1440 times
same,Relative Inactivating Efficiency,"[1]; 10 mM dehydroascorbic acid, 0 M arginine, pH 4.0, relative to 0.1 mM compound alone",1 times
same,Relative Inactivating Efficiency,"[1]; 10 mM dehydroascorbic acid, 0.2 M arginine, pH 4.0, relative to 0.1 mM compound alone",>7200 times
same,Relative Inactivating Efficiency,"[1]; 10 mM dehydroascorbic acid, 0.2 M arginine, pH 4.0, relative to 0.1 mM compound alone, listed as dehydroascorbic acid",more than 7200 times
"[Cl-].[Na+] [NaCl, reference compound]",Relative Inactivating Efficiency,[1]; pH 4,0.011 times
(−)epigallocatechin gallate,"remaining viral titer, % of the viral amount before inactivation",[1]; [3],0.02%
same,Relative Inactivating Efficiency,[1]; [4],1 times
same,Relative Inactivating Efficiency,[1]; [5],12 times
same,Relative Inactivating Efficiency,[1]; [6],268 times
cocoyl arginine ethyl ester [CAE],"viral titer after inactivation, % of that before inactivation","[1]; 0.005% CAE alone, pH 4.0, 30° C. 5 min",0.4%
same,Relative Inactivating Efficiency,"[1]; 0.005% CAE, 0 M arginine, pH 4.0, 10 mM sodium citrate, relative to 0.005% CAE alone",1 times
same,Relative Inactivating Efficiency,"[1]; 0.005% CAE, 0.058 M arginine, pH 4.0, relative to 0.005% CAE alone",1.13 times
same,Relative Inactivating Efficiency,"[1]; 0.005% CAE, 0.115 M arginine, pH 4.0, relative to 0.005% CAE alone",20 times
same,"viral titer after inactivation, % of that before inactivation","[2]; 0.01% CAE alone, pH 4.8, 30° C. 5 min",3.1%
same,Relative Inactivating Efficiency,"[2]; 0.01% CAE, 0 M arginine, pH 4.8, 10 mM sodium citrate",1 Times
same,Relative Inactivating Efficiency,"[2]; 0.01% CAE, 0.115 M arginine, pH 4.8",82 Times
same,Relative Inactivating Efficiency,"[2]; 0.02% CAE, 0.115 M arginine, pH 4.8",63 Times

# Reference: US9872499B2, “Virus-inactivating composition containing low-molecular weight compound and arginine” (priority 2010, dated 2018)
